Experimental data reported in patent publication US9120749B2, “Quinoline derivatives and MELK inhibitors containing the same” (ONCOTHERAPY SCIENCE, INC., priority 2010, dated 2015).

Key:
[1] = tested on: HT-1197 cells; assay: Cell-based assay: anti-proliferative activity, Cell Counting Kit-8, 72 hours (HT-1197, negative control without MELK expression); conditions: HT1197 cells (negative control, no MELK expression), 72 hours
Method in brief: (§1)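 Anti-MELK western blot on crude lysates → MELK status per line. Cells plated 96-well, compound exposure, CCK-8 readout at 72 h; IC50 calculated.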

[2] = tested on: A549 cells; assay: Cell-based assay: anti-proliferative activity, Cell Counting Kit-8, 72 hours (A549); conditions: Homo sapiens, A549, 72 h, 72 hours
Method in brief: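 Cell Counting Kit-8 read-out of A549 growth after 72 hours of inhibitor exposure, cells plated in 96-well format. Values reported as IC50.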

[3] = target: MELK (Homo sapiens, UniProt Q14680); assay: Kinase assay: MELK activity, phosphorylation of FITC-labeled histone H3 peptide measured by IMAP fluorescence polarization; format: biochemical; conditions: read-out: IC50 (μM) (kinase assay)
Method in brief: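 Compounds, serially diluted from 12.5 mM DMSO stocks to 1% final DMSO, were tested with FITC-labeled histone H3 peptide as substrate. The reaction was stopped with progressive binding solution. Fluorescence polarization was read after 0.5 hour at room temperature.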

[4] = tested on: DU4475 cells; assay: Cell-based assay: anti-proliferative activity, Cell Counting Kit-8, 72 hours (DU4475); conditions: Homo sapiens, DU-4475, 72 h
[5] = tested on: T47D cells; assay: Cell-based assay: anti-proliferative activity, Cell Counting Kit-8, 72 hours (T47D); conditions: Homo sapiens, T47D, 72 h
Method in brief: as §1

MELK, sequence (Q14680 whole entry, looked up): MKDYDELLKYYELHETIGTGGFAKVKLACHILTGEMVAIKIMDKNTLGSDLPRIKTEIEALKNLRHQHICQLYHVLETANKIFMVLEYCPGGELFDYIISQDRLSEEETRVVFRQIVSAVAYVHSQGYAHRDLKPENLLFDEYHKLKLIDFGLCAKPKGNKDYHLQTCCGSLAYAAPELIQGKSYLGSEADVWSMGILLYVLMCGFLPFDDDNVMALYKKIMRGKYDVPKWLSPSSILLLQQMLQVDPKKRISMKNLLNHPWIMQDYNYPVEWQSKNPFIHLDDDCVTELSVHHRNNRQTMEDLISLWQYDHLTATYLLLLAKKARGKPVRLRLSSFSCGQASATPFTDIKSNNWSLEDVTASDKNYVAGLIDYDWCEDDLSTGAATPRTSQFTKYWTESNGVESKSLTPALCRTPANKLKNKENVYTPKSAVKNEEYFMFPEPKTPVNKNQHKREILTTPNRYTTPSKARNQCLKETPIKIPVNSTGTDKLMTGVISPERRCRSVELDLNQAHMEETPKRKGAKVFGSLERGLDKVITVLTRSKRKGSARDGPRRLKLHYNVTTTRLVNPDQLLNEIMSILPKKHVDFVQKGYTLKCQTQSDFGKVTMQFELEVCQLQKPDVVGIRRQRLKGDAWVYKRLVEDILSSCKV

Structure (SMILES) | IC50 ([1]; Homo sapiens, HT1197, 72 h) [µM] | IC50 [2] [µM] | IC50 [3] [µM] | IC50 [4] [µM] | IC50 [5] [µM] | IC50 [1] [µM]
COc1cc(-c2ccc3ncc(C(=O)C4CC4)c(N[C@H]4CC[C@H](CN5CCC(N(C)C)C5)CC4)c3c2)cc(Cl)c1O (some centres unmarked) [Example 668] | 2.6 | 0.56 | 0.0039 | 1.4 | 1 | –
CNC[C@H]1CC[C@H](Nc2c(C(=O)C3CC3)cnc3ccc(-c4cc(Cl)c(O)c(Cl)c4)cc23)CC1 [Example 685, cyclopropyl(6-(3,5-dichloro-4-hydroxyphenyl)-4-((trans-4-((methylamino)methyl)cyclohexyl)amino)quinolin-3-yl)methanone] | 0.73 | 0.14 | 0.0016 | 0.018 | 0.054 | –
O=C(c1cnc2ccc(-c3cc(Cl)c(O)c(Cl)c3)cc2c1Nc1ccc(NC2CCNC2)nc1)C1CC1 (centres unmarked) [Example 666, cyclopropyl(6-(3,5-dichloro-4-hydroxyphenyl)-4-(6-(pyrrolidin-3-ylamino)pyridin-3-ylamino)quinolin-3-yl)methanone] | 10 | 10 | 0.024 | 0.071 | 0.34 | –
CC(=O)c1cnc2ccc(-c3cc(Cl)c(O)c(Cl)c3)cc2c1Nc1ccc(N2CCCC(N)C2)nc1 (centres unmarked) [Example 681, 1-(4-(6-(3-aminopiperidin-1-yl)pyridin-3-ylamino)-6-(3,5-dichloro-4-hydroxyphenyl)quinolin-3-yl)ethanone] | 0.25 | 0.017 | 0.00086 | 0.0085 | 0.0046 | –
CN(C)CCOc1ccc(Nc2c(C(=O)C3CC3)cnc3ccc(-c4cc(Cl)c(O)c(Cl)c4)cc23)cn1 [Example 711, Cyclopropyl(6-(3,5-dichloro-4-hydroxyphenyl)-4-(6-(2-(dimethylamino)ethoxy)pyridin-3-ylamino)quinolin-3-yl)methanone] | 5.7 | 0.11 | 0.0032 | 0.073 | 0.22 | –
CC(=O)c1cnc2ccc(-c3cc(F)c(O)c(Cl)c3)cc2c1N[C@@H]1CC[C@@H](CN(C)C)C1 [Example 717, 1-(6-(3-chloro-5-fluoro-4-hydroxyphenyl)-4-((1R,3R)-3-((dimethylamino)methyl)cyclopentylamino)quinolin-3-yl)ethanone] | 2 | 0.65 | 0.011 | 0.34 | 0.42 | –
CC(=O)c1cnc2ccc(-c3cc(F)c(O)c(Cl)c3)cc2c1Nc1ccc(CN2CCN(C)CC2)cc1 [Example 656, 1-(6-(3-chloro-5-fluoro-4-hydroxyphenyl)-4-(4-((4-methylpiperazin-1-yl)methyl)phenylamino)quinolin-3-yl)ethanone] | 6.1 | 0.41 | 0.033 | 0.27 | 0.19 | –
COc1cc(-c2ccc3ncc(C(C)=O)c(N[C@H]4CC[C@H](CN5CCCC5)CC4)c3c2)cc(Cl)c1O [Example 734] | 6.4 | 0.25 | 0.0016 | 0.36 | 0.51 | –
CC(=O)c1cnc2ccc(-c3cc(F)c(O)c(Cl)c3)cc2c1Nc1ccc(N2CCCC(N)C2)nc1 (centres unmarked) [Example 732, 1-(4-(6-(3-aminopiperidin-1-yl)pyridin-3-ylamino)-6-(3-chloro-5-fluoro-4-hydroxyphenyl)quinolin-3-yl)ethanone] | – | 0.0094 | 0.0017 | 0.0099 | 0.0056 | 0.18
N[C@@H]1CCCN(c2ccc(Nc3c(C(=O)C4CC4)cnc4ccc(-c5cc(F)c(O)c(Cl)c5)cc34)cn2)C1 [Example 651, (R)-(4-(6-(3-aminopiperidin-1-yl)pyridin-3-ylamino)-6-(3-chloro-5-fluoro-4-hydroxyphenyl)quinolin-3-yl)(cyclopropyl)methanone] | 0.12 | 0.0075 | 0.00076 | 0.0071 | 0.0054 | –
COc1cc(-c2ccc3ncc(C(=O)C4CC4)c(Nc4cccc(CCN(C)C)c4)c3c2)cc(Cl)c1O [Example 692, (6-(3-chloro-4-hydroxy-5-methoxyphenyl)-4-(3-(2-(dimethylamino)ethyl)phenylamino)quinolin-3-yl)(cyclopropyl)methanone] | 5.9 | 0.37 | 0.0056 | 0.3 | 1 | –
O=C(c1cnc2ccc(-c3cc(Cl)c(O)c(Cl)c3)cc2c1Nc1ccc(N2CCC(O)C2)nc1)C1CC1 (centres unmarked) [Example 670, cyclopropyl(6-(3,5-dichloro-4-hydroxyphenyl)-4-(6-(3-hydroxypyrrolidin-1-yl)pyridin-3-ylamino)quinolin-3-yl)methanone] | 5.3 | 0.72 | 0.0069 | 0.59 | 0.43 | –
N[C@H]1CCCN(c2ccc(Nc3c(C(=O)C4CC4)cnc4ccc(-c5cc(F)c(O)c(Cl)c5)cc34)cn2)C1 [Example 648, (S)-(4-(6-(3-aminopiperidin-1-yl)pyridin-3-ylamino)-6-(3-chloro-5-fluoro-4-hydroxyphenyl)quinolin-3-yl)(cyclopropyl)methanone] | 0.28 | 0.013 | 0.0019 | 0.0046 | 0.0095 | –
N[C@@H]1CCCN(c2ccc(Nc3c(C(=O)C4CC4)cnc4ccc(-c5cc(Cl)c(O)c(Cl)c5)cc34)cn2)C1 [Example 650, (R)-(4-(6-(3-aminopiperidin-1-yl)pyridin-3-ylamino)-6-(3,5-dichloro-4-hydroxyphenyl)quinolin-3-yl)(cyclopropyl)methanone] | 0.32 | 0.015 | 0.001 | 0.0072 | 0.0099 | –
COc1cc(-c2ccc3ncc(C(=O)C4CC4)c(N[C@H]4CC[C@H](CN(C)CCO)CC4)c3c2)cc(Cl)c1O [Example 633] | 2.3 | 0.12 | 0.0016 | 0.15 | 0.21 | –
COc1cc(-c2ccc3ncc(C(=O)C4CC4)c(NC4CCNCC4)c3c2)cc(Cl)c1O [Example 727, (6-(3-chloro-4-hydroxy-5-methoxyphenyl)-4-(piperidin-4-ylamino)quinolin-3-yl)(cyclopropyl)methanone] | 1.1 | 0.19 | 0.0034 | 0.14 | 0.37 | –
CC(=O)c1cnc2ccc(-c3cc(F)c(O)c(Cl)c3)cc2c1N[C@H]1CC[C@H](CN2CCCC2)CC1 [Example 731] | 1.3 | 0.17 | 0.0047 | 0.13 | 0.11 | –
COc1cc(-c2ccc3ncc(C(=O)C4CC4)c(NC4CCC(C)(N)CC4)c3c2)cc(Cl)c1O (centres unmarked) [Example 639, [4-(4-Amino-4-methylcyclohexylamino)-6-(3-chloro-4-hydroxy-5-methoxyphenyl)quinolin-3-yl](cyclopropyl)methanone] | 0.46 | 0.09 | 0.0012 | 0.062 | 0.1 | –
COc1cc(-c2ccc3ncc(C(C)=O)c(N[C@H]4CC[C@H](CCN(C)C)CC4)c3c2)cc(Cl)c1O [Example 738] | 7.8 | 0.34 | 0.0026 | 2.1 | 0.51 | –
